These results are taken from patent US20240082205A1, “USE OF PHTHALIDE COMPOUNDS IN TREATMENT OF MENINGIOMA” (EVERFRONT BIOTECH INC., priority 2020, published 2024).

The test system of one test is AMGI-0102 cells. The experiment in a line: MTT cell viability, killing meningioma cells (AMGI-0102). Type of test: cell-based, Human. The conditions noted are these: AMGI-0102 grade I benign meningioma primary culture cells, 72 hours. The source says: (§1) In the following Examples, the used materials and equipment are described as below: • 1. Human meningioma cell lines: IOMM-Lee cells (purchased from ATCC; CRL-3370;
belonging to grade III malignant meningioma cells), AMGI-0102 primary culture cells (obtained by the approval according to the human subject research of Hualien Tzu Chi Hospital (Buddhist Tzu Chi Medical Foundation); belonging to grade I benign meningioma cells). • 2. […] Medium for AMGI-0102 cells: DMEM/F12 medium (Dulbecco's Modified Eagle Medium/F12 with L-glutamine, HEPES; purchased from HyClone; product number: SH30023.02) containing 10% Fetal Bovine Serum and 1% penicillin/streptomycin. • 4. Z-butylidenephthalide (Z-BP): provided by Everfront Biotech Inc.; purity 99.8%. • 5. E-butylidenephthalide (E-BP): provided by Everfront Biotech Inc.; purity 98.01%. • 6. 2-pentanolybenzoic acid (BP-OH): provided by Everfront Biotech Inc.; purity 99.6%. • 7. Sodium^2-pentanoylbenzoate (BPONa): provided by Everfront Biotech Inc.; purity 99.7%. • 8. 5-fluorouracil (5-FU): purchased from Sigma; product number: F6627. • 9. Carmustine (BCNU): purchased from Sigma; product number: SI-00400-100MG. • 10. MTIC: purchased from Biosynth Carbosynth; product number: FM26098. • 11. […] ELISA reader: purchased from Thermo Fisher Scientific; model number: 22662. • 13. […]

A further test deals with IOMM-Lee cells. The experiment in a line: MTT cell viability, killing meningioma cells (IOMM-Lee). Type of test: cell-based, Human. The conditions noted are these: IOMM-Lee grade III malignant meningioma cells, 72 hours; for IC50: Homo sapiens, read-out: IC50 (concentration to achieve 50% lethal rate).
Text: as §1
belonging to grade III malignant meningioma cells), AMGI-0102 primary culture cells (obtained by the approval according to the human subject research of Hualien Tzu Chi Hospital (Buddhist Tzu Chi Medical Foundation); belonging to grade I benign meningioma cells). • 2. […] Medium for AMGI-0102 cells: DMEM/F12 medium (Dulbecco's Modified Eagle Medium/F12 with L-glutamine, HEPES; purchased from HyClone; product number: SH30023.02) containing 10% Fetal Bovine Serum and 1% penicillin/streptomycin. • 4. Z-butylidenephthalide (Z-BP): provided by Everfront Biotech Inc.; purity 99.8%. • 5. E-butylidenephthalide (E-BP): provided by Everfront Biotech Inc.; purity 98.01%. • 6. 2-pentanolybenzoic acid (BP-OH): provided by Everfront Biotech Inc.; purity 99.6%. • 7. Sodium^2-pentanoylbenzoate (BPONa): provided by Everfront Biotech Inc.; purity 99.7%. • 8. 5-fluorouracil (5-FU): purchased from Sigma; product number: F6627. • 9. Carmustine (BCNU): purchased from Sigma; product number: SI-00400-100MG. • 10. MTIC: purchased from Biosynth Carbosynth; product number: FM26098. • 11. MTT (Thiazolyl Blue tetrazolium bromide, 3-[4,5-dimethylthiahiazo-2-yl]-2,4-dipheny-tetrazolium bromide): purchased from ALFA Aesar™; product number: L11939-000000-16AF. • 12. ELISA reader: purchased from Thermo Fisher Scientific; model number: 22662. • 13. […]
IOMM-Lee cells and AMGI-0102 cells were independently seeded in a 96-well plate (1×10^4 cells/well), and the 96-well plate was placed under an environment of 37° C. and 5% CO2 for 24 hours. After that, the cells in the 96-well plate were subjected to the following procedures: • (a) the cells in different wells were cultured with a medium containing Z-butylidenephthalide, E-butylidenephthalide, 2-pentanolybenzoic acid, or sodium^2-pentanoylbenzoate, and the 96-well plate was placed under an environment of 37° C. and 5% CO2 for 72 hours; • (b) MTT was added into each well (the final concentration is 0.5 mg/ml), and the 96-well plate was placed under an environment of 37° C. and 5% CO2 for 1.5 hours; • (c) the medium of each well was removed, and then dimethyl sulfoxide was added (100 μl/well); and • (d) an absorbance value of each well at 595 nm was measured by an ELISA reader. […]

The subject of the next test is p-JNK protein. The experiment in a line: Western Blotting of p-JNK protein in IOMM-Lee cells. It counts as cell-based, Human. The conditions noted are these: IOMM-Lee cells, 0, 16.8 and 33.6 μg/ml, 24 hours, FIG. 1. An excerpt: (§2) It is known that the activations (phosphorylation) of ERK (extracellular signal-regulated kinase) protein and JNK (c-Jun N-terminal kinase) protein in the protein kinase family are related to the proliferation of tumor cells. The aforesaid facts can be found in such as: “The ERK and JNK pathways in the regulation of metabolic reprogramming ” Oncogene. 2019; 38: 2223-2240; “ERK Inhibitor LY3214996 Targets ERK Pathway-Driven Cancers: A Therapeutic Approach Toward Precision Medicine.” Mol Cancer Ther. 2020 February; 19(2):325-336; and “The novel JNK inhibitor AS602801 inhibits cancer stem cells in vitro and in vivo.” Oncotarget. 2016 May 10; 7(19):27021-32, which are entirely incorporated hereinto by reference. Therefore, if the activations of ERK protein and JNK protein in tumor cells can be reduced, the meningioma growth will be inhibited.
(§3) IOMM-Lee cells were seeded in a 10 cm culture dish ([…]), and the dish was placed under an environment of 37° C. and 5% CO2 for 24 hours. Then, the cells in different dishes were independently cultured with a medium containing Z-butylidenephthalide at concentrations of 0, 16.8 and 33.6 μg/ml. […] Finally, the expressions of the inactivated JNK protein and ERK protein, and the activated p-JNK protein and p-ERK protein in the cells were detected by Western Blotting. […]
Background: Immunoblotting shows a protein as a band on a membrane.

A further test deals with grade III meningioma. The experiment in a line: Human test: tumor size by T1-weighted MRI after wafer implantation. Type of test: in vivo. The settings on record: one subject with grade III meningioma; six wafers (75 mg Z-butylidenephthalide per wafer) implanted in resection cavity, plus oral temozolomide; up to 224 days after operation. The procedure:
In this example, depending on the approval of the Research Ethics Committee Hualien Tzu Chi Hospital (Buddhist Tzu Chi Medical Foundation; SP109-04), meningioma patients were administered with Z-butylidenephthalide to observe the effects of the compounds of the present invention on inhibiting meningioma growth.
During the surgical operation for resecting meningioma in a subject (suffered with grade III meningioma), six wafers containing Z-butylidenephthalide (75 mg of Z-butylidenephthalide per wafer) were implanted into the cavity generated by resecting meningioma. The subject also took 150 mg/m^2 of body surface area/day (the first treatment course) or 200 mg/m^2 of body surface area/day (the second to sixth treatment course) of temozolomide via oral administration every day post-operation. […] On the other hand, the tumor size in the pictures of the subject's brain (at pre-operation, and post-operative days 1, 28, 84, 168, and 224), obtained by T1-weighted magnetic resonance imaging, was also calculated by using StealthStation S7 software (purchased from Medtronic company, US).

In a further test the test system is p-ERK protein. The experiment in a line: Western Blotting of p-ERK protein in IOMM-Lee cells. Type of test: cell-based, Human. The conditions noted are these: IOMM-Lee cells, 0, 16.8 and 33.6 μg/ml, 24 hours, FIG. 1.
Text: as §2, §3

≈ marks a conversion by molar mass, not a printed value.

2-pentanolybenzoic acid: the “IC50 (concentration to achieve 50% lethal rate)” value in the test with AMGI-0102 cells was determined as 1286.3 µg/mL; with IOMM-Lee cells, 304.3 µg/mL.
`CCC/C=C1/OC(=O)c2ccccc21` [E-butylidenephthalide]: the IC50 in the test with IOMM-Lee cells turned out to be 306 µg/mL (≈ 1630 µM).
`CCC/C=C1\OC(=O)c2ccccc21` [Z-butylidenephthalide]: the “expression of p-JNK protein” value with p-JNK protein is “significantly decreased”. Moreover, in the test with grade III meningioma, the “tumor size of the subject” value is on record as “no change in the tumor size”. Moreover, the IC50 in the test with AMGI-0102 cells (Homo sapiens, read-out: IC50 (concentration to achieve 50% lethal rate)) turned out to be 94.5 µg/mL (≈ 502 µM); in the test with IOMM-Lee cells, 33.5 µg/mL (≈ 178 µM). In addition, in the test on p-ERK protein, the “expression of p-ERK protein” value is “significantly decreased”.
For the molecule `CCCCC(=O)c1ccccc1C(=O)[O-].[Na+]` [sodium 2-pentanoylbenzoate], the IC50 in the test on IOMM-Lee cells came out at 365 µg/mL.
